Measurements from patent publication US20240384268A1, “Oligonucleotides” (Hudson Institute of Medical Research, priority 2021, published 2024).

Biological target: T1, human TLR7 (Homo sapiens, UniProt Q9NYK1)
T1 construct: HA; host or cells: 293XL-hTLR7-HA (HEK293)
T1 sequence (Q9NYK1 27-1049): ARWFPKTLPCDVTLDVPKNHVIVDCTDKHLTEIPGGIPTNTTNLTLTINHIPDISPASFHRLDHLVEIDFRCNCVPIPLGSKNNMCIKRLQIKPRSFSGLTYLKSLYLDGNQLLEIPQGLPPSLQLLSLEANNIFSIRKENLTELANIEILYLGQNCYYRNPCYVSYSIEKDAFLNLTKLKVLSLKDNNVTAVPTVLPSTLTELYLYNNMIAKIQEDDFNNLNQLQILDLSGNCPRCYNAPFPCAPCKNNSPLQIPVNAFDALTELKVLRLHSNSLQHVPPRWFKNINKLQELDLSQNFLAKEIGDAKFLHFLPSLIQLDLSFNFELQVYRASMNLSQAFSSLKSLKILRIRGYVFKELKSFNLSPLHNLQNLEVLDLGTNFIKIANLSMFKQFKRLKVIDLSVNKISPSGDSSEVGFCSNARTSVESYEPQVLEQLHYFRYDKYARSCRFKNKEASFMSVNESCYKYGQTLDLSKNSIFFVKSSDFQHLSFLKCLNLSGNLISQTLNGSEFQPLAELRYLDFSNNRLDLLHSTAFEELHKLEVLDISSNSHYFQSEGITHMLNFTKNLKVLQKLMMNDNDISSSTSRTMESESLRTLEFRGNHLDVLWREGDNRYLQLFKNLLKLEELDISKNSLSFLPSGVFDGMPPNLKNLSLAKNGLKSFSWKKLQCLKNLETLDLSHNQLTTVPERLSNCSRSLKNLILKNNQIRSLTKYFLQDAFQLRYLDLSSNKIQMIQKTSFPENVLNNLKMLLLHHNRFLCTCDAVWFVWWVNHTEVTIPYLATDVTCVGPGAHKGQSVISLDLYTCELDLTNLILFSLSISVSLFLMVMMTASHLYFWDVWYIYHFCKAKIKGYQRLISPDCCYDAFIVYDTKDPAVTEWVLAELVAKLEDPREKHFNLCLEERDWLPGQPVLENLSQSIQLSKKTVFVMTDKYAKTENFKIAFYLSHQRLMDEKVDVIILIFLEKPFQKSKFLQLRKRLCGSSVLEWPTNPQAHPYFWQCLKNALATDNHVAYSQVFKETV
Assay: HEK-TLR7 NF-κB-luciferase reporter, R848 stimulation
Assay type: cell-based
Conditions: averaged NF-κB-Luciferase relative to R848 condition; for TLR7 100 nM: MOE-modified ASO at 100 nM; for TLR7 500 nM: MOE-modified ASO at 500 nM

CACCCACTTGGCAGACCATC (antisense; 2'-MOE modified, pattern not given here) [CTNN2B-1576 MOE]
TLR7 100 nM: 0.600
TLR7 500 nM: 0.227

GGTGGTCCACAACCCCTTTC (antisense; 2'-MOE modified, pattern not given here) [MB21D1-697 MOE]
TLR7 100 nM: 0.620
TLR7 500 nM: 0.097

AACACTTCGTGGGGTCCTTT (antisense; 2'-MOE modified, pattern not given here) [HPRT-664 MOE]
TLR7 100 nM: 0.406
TLR7 500 nM: 0.226

GGAGATTTCAGAGCAGCTTC (antisense; 2'-MOE modified, pattern not given here) [EGFR-4885 MOE]
TLR7 100 nM: 0.330
TLR7 500 nM: 0.088

GCGACTATACGCGCAATATG (antisense; 2'-MOE modified, pattern not given here) [NC5 2′MOE]
TLR7 100 nM: 0.948
TLR7 500 nM: 0.294

GCGTGTCTGGAAGCTTCCTT (antisense; 2'-MOE modified, pattern not given here) [CTNN2B-809 MOE]
TLR7 100 nM: 0.415
TLR7 500 nM: 0.134

TTGGCTCGGCTTGCCTACTT (antisense; 2'-MOE modified, pattern not given here) [CAMSAP1-5594 MOE]
TLR7 100 nM: 0.523
TLR7 500 nM: 0.204

CTGTGATCTTGACATGCTGC (antisense; 2'-MOE modified, pattern not given here) [EGFR-2790 MOE]
TLR7 100 nM: 0.449
TLR7 500 nM: 0.206

ACTGACTGTCTTGAGGGTTC (antisense; 2'-MOE modified, pattern not given here) [MB21D1-1483 MOE]
TLR7 100 nM: 0.627
TLR7 500 nM: 0.299

GTCTTGGCTTCGTGGAGCAG (antisense; 2'-MOE modified, pattern not given here) [MB21D1-520 MOE]
TLR7 100 nM: 0.372
TLR7 500 nM: 0.095

GTCCTTGCACGTGGCTTCGT (antisense; 2'-MOE modified, pattern not given here) [EGFR-1013 MOE]
TLR7 100 nM: 0.216
TLR7 500 nM: 0.088

CAGATAGCACCTTCAGCACT (antisense; 2'-MOE modified, pattern not given here) [CTNN2B-1294 MOE]
TLR7 100 nM: 0.497
TLR7 500 nM: 0.254

GAGTCTCTGGAGCTTCCTCT (antisense; 2'-MOE modified, pattern not given here) [CAMSAP1-2456 MOE]
TLR7 100 nM: 0.469
TLR7 500 nM: 0.170

GCGGAGGTCTTGGCTTCGTG (antisense; 2'-MOE modified, pattern not given here) [MB21D1-526 MOE]
TLR7 100 nM: 0.453
TLR7 500 nM: 0.154

GTGTCTTCATCGGCCCTGCC (antisense; 2'-MOE modified, pattern not given here) [CAMSAP1-2113 MOE]
TLR7 100 nM: 0.371
TLR7 500 nM: 0.132

TTCTGCAGCTTCCTTGTCCT (antisense; 2'-MOE modified, pattern not given here) [CTNN2B-2136 MOE]
TLR7 100 nM: 0.183
TLR7 500 nM: 0.059

TCGCACTTCAGTCTGAGCAG (antisense; 2'-MOE modified, pattern not given here) [MB21D1-719 MOE]
TLR7 100 nM: 0.574
TLR7 500 nM: 0.241

CTCTTGAAGCATCGTATCAC (antisense; 2'-MOE modified, pattern not given here) [CTNN2B-3648 MOE]
TLR7 100 nM: 0.609
TLR7 500 nM: 0.341

ATGTCCCCTGTTGACTGGTC (antisense; 2'-MOE modified, pattern not given here) [HPRT-489 MOE]
TLR7 100 nM: 0.426
TLR7 500 nM: 0.224

TGTCTTCATCGGCCCTGCCT (antisense; 2'-MOE modified, pattern not given here) [CAMSAP1-2112 MOE]
TLR7 100 nM: 0.396
TLR7 500 nM: 0.185

ACAGTGTTGAGATACTCGGG (antisense; 2'-MOE modified, pattern not given here) [EGFR-3652 MOE]
TLR7 100 nM: 0.420
TLR7 500 nM: 0.129
